Converted amounts (≈) assume the structure as drawn.
Each molecule was assayed on Trichosporon asahii 1188 (assay: Antifungal microdilution broth MIC, T. asahii). Details: Trichosporon asahii, 1188; 48 h incubation; read-out: MIC TA 48 h.
Type: cell-based
In the case of OC(Cn1cncn1)(Cn1cncn1)c1ccc(F)cc1F [FLU, fluconazole, reference compound], the MIC is reported as 500 µM (≈ 153 µg/mL).

What follows are molecules tested on Lichtheimia corymbifera 272 (assay: Antifungal microdilution broth MIC, L. corymbifera). Details: Lichtheimia corymbifera, 272; 48 h incubation; read-out: MIC LC 48 h.
Type: cell-based
For OC(Cn1cncn1)(Cn1cncn1)c1ccc(F)cc1F [FLU, fluconazole, reference compound], the MIC was over 500 µM.

The molecules below were run on Candida krusei E28 (assay: Antifungal microdilution broth MIC, C. krusei). Details: Pichia kudriavzevii, E28; 48 h incubation; read-out: MIC CK 48 h.
Type: cell-based
Work on OC(Cn1cncn1)(Cn1cncn1)c1ccc(F)cc1F [FLU, fluconazole, reference compound] yielded an MIC of 250 µM (≈ 76.6 µg/mL).

Each molecule was assayed on Candida glabrata 20/I (assay: Antifungal microdilution broth MIC, C. glabrata). Details: Nakaseomyces glabratus, 48 h incubation, read-out: MIC CG 48 h.
Type: cell-based
OC(Cn1cncn1)(Cn1cncn1)c1ccc(F)cc1F [FLU, fluconazole, reference compound] gave an MIC of 500 µM (≈ 153 µg/mL).

The molecules below were run on Trichophyton interdigitale 445 (assay: Antifungal microdilution broth MIC, T. interdigitale). Details: Trichophyton interdigitale, 445; 72 h incubation; read-out: MIC TI 72 h.
Type: cell-based
In the case of OC(Cn1cncn1)(Cn1cncn1)c1ccc(F)cc1F [FLU, fluconazole, reference compound], the MIC is reported as 7.81 µM (≈ 2.39 µg/mL).

Same assay, conditions: Trichophyton interdigitale, 445; 120 h incubation; read-out: MIC TI 120 h
OC(Cn1cncn1)(Cn1cncn1)c1ccc(F)cc1F [FLU, fluconazole, reference compound] gave an MIC of 125 µM (≈ 38.3 µg/mL).

These molecules were tested on Mycobacterium avium 330/88 (assay: In vitro antimycobacterial MIC, M. avium). Details: 330/88, 336 h, 14 d incubation, read-out: MIC M. avium 330/88 14 d.
Type: cell-based
With NNC(=O)c1ccncc1 [INH, isoniazid, reference compound] the MIC was over 250 µM.

Same assay, conditions: 330/88, 504 h, 21 d incubation, read-out: MIC M. avium 330/88 21 d
In the case of NNC(=O)c1ccncc1 [INH, isoniazid, reference compound], the MIC is reported as over 250 µM.

The molecules below were run on M. kansasii 6509/96 (assay: In vitro antimycobacterial MIC, M. kansasii clinical isolate). Details: Mycobacterium kansasii, 6509/96, 168 h; 7 d incubation; read-out: MIC M. kansasii 6509/96 7 d.
Type: cell-based
In the case of NNC(=O)c1ccncc1 [INH, isoniazid, reference compound], the MIC is reported as 8 µM (≈ 1.1 µg/mL).

Same assay, conditions: Mycobacterium kansasii, 6509/96, 336 h; 14 d incubation; read-out: MIC M. kansasii 6509/96 14 d
NNC(=O)c1ccncc1 [INH, isoniazid, reference compound] gave an MIC of 8 µM (≈ 1.1 µg/mL).

Same assay, conditions: Mycobacterium kansasii, 6509/96, 504 h; 21 d incubation; read-out: MIC M. kansasii 6509/96 21 d
NNC(=O)c1ccncc1 [INH, isoniazid, reference compound] was tested, and the MIC was 8 µM (≈ 1.1 µg/mL).

The molecules below were run on Mycobacterium tuberculosis 331/88 (H37Rv) (assay: In vitro antimycobacterial MIC, M. tuberculosis). Details: 336 h, 14 d incubation, read-out: MIC Mtb. 331/88 14 d.
Type: cell-based
Molecule NNC(=O)c1ccncc1 [INH, isoniazid, reference compound] has an MIC of 0.5 µM (≈ 0.0686 µg/mL).

Same assay, conditions: 504 h, 21 d incubation, read-out: MIC Mtb. 331/88 21 d
In the case of NNC(=O)c1ccncc1 [INH, isoniazid, reference compound], the MIC is reported as 1 µM (≈ 0.137 µg/mL).

These molecules were tested on Candida albicans ATCC 44859 (assay: Antifungal microdilution broth MIC, C. albicans). Details: ATCC44859, 48 h incubation, read-out: MIC CA 48 h.
Type: cell-based
For OC(Cn1cncn1)(Cn1cncn1)c1ccc(F)cc1F [FLU, fluconazole, reference compound], the MIC was 0.24 µM (≈ 0.0735 µg/mL).

Each molecule was assayed on Aspergillus fumigatus 231 (assay: Antifungal microdilution broth MIC, A. fumigatus). Details: Aspergillus fumigatus, 231; 48 h incubation; read-out: MIC AF 48 h.
Type: cell-based
In the case of OC(Cn1cncn1)(Cn1cncn1)c1ccc(F)cc1F [FLU, fluconazole, reference compound], the MIC is reported as over 500 µM.

Each molecule was assayed on Mycobacterium kansasii 235/80 (assay: In vitro antimycobacterial MIC, M. kansasii 235/80). Details: 235/80, 168 h, 7 d incubation, read-out: MIC M. kansasii 235/80 7 d.
Type: cell-based
NNC(=O)c1ccncc1 [INH, isoniazid, reference compound] gave an MIC of over 250 µM.

Same assay, conditions: 235/80, 336 h, 14 d incubation, read-out: MIC M. kansasii 235/80 14 d
Molecule NNC(=O)c1ccncc1 [INH, isoniazid, reference compound] has an MIC of over 250 µM.

Same assay, conditions: 235/80, 504 h, 21 d incubation, read-out: MIC M. kansasii 235/80 21 d
Work on NNC(=O)c1ccncc1 [INH, isoniazid, reference compound] yielded an MIC of over 250 µM.

What follows are molecules tested on Candida tropicalis 156 (assay: Antifungal microdilution broth MIC, C. tropicalis). Details: Candida tropicalis, 156; 48 h incubation; read-out: MIC CT 48 h.
Type: cell-based
Work on OC(Cn1cncn1)(Cn1cncn1)c1ccc(F)cc1F [FLU, fluconazole, reference compound] yielded an MIC of over 500 µM.

Reference: PMC6151383 (Molecules : A Journal of Synthetic Chemistry and Natural …, 2017)
